From ChEMBL document CHEMBL1201862, “PubChem BioAssay data set” (2004) come the findings set out here.

As usually defined, the IC50 is the concentration that gives 50% inhibition. Usually AC50 stands for the concentration at which the activity in the assay is half-maximal. A word on the EC50: it is the concentration that produces a half-maximal response. As a reminder, the CC50 is the concentration that lowers cell viability or growth by half.

Calls of active or inactive are those of the source.

The nature of experiment [1]: P. falciparum late gametocyte killing, dose response, luminescence (AID 1117278).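 Note: gametocytes exposed to compound for 24 hours.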 The format is functional, cell-based.
Experiment [2] can be described thus: Jurkat T cell cytotoxicity, dose response, cytotoxicity control for P. falciparum gametocyte viability project, luminescence (AID 1117277).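 Note: potency reflects loss of cellular ATP meaning fewer viable cells.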 The format is functional, cell-based.
Experiment [3] addresses T1, Calpain-2 catalytic subunit (Sus scrofa, UniProt P43367).
T1 sequence (P43367 whole entry): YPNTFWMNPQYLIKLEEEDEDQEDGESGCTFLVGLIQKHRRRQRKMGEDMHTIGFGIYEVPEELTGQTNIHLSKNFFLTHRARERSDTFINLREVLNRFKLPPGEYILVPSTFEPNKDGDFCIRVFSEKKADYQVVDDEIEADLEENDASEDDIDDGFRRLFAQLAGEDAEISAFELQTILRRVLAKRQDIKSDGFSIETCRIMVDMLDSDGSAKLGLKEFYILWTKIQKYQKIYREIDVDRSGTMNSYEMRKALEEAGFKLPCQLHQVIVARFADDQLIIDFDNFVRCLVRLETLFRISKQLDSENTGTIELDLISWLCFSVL
Nature of the experiment: pig calpain II inhibitor potency, dose response, biochemical, fluorogenic peptide substrate (AID 1420). The class given is functional.

Experiment [4] is described as follows: A549 cell cytotoxicity, dose response, cytotoxicity control, plate reader, dry powder, set 7 (AID 743318). The class given is functional, cell-based.
The target in experiment [5] is Leucyl-cystinyl aminopeptidase (Mus musculus, UniProt Q8C129). Nature of the experiment: IRAP enzyme inhibitors, dose response, selectivity assay for ERAP1 modulator project, biochemical, dry powder samples, set 3 (AID 1117288). The class given is functional.
Experiment [6] concerns the target Endoplasmic reticulum aminopeptidase 2 (Homo sapiens, UniProt Q6P179). Nature of the experiment: ERAP2 aminopeptidase inhibitors, dose response, selectivity assay for selective ERAP1 modulator project, biochemical, plate reader, dry powder, set 2 (AID 1117289). The class given is functional.
For experiment [7], the system named is INS1. Nature of the experiment: beta cell apoptosis inhibitors, cytokine rescue, dose response, luminescence, retest (AID 449756).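 Note: cell death triggered by IL-1 beta plus TNF-alpha plus IFN-gamma mixture; protective hits raise ATP signal compared with cytokine alone wells.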 The format is functional, cell-based. The settings on record: Rattus norvegicus.
Experiment [8] in a line: Dose-response inhibition of insulin secretion in a rat insulinoma line at 5 mM glucose (AID 1117331). The format is functional, cell-based. The following applies: INS-1E.
Experiment [9] can be described thus: inhibitors of intracellular T. cruzi replication, confirmation, NIH3T3 host cells, beta-gal luminescence (AID 2044).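 Note: intracellular parasites grown in NIH/3T3 mouse fibroblasts as host cells; luminescent beta-galactosidase reporter signal from transgenic T. cruzi replicating inside host cells; inhibitors lower the luminescence signal.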 The format is functional, cell-based.
Experiment [10] is described as follows: cytotoxicity in OVCAR4 cells, dose response, cytotoxicity control for PAX8 inhibitor project, cell-based, plate reader, dry powder, SA11 (AID 743150). The format is functional. The settings on record: OVCAR-4.
Experiment [11] is described as follows: cytotoxicity dependent on PAX8, dose response, cell-based, plate reader, dry powder (AID 743049). The format is functional.
A short description of experiment [12]: A2780 ovarian cancer cell cytotoxicity, dose response, cytotoxicity control, plate reader, dry powder samples (AID 743046). The format is functional, cell-based.
The nature of experiment [13]: IGROV1 ovarian cancer cell cytotoxicity, dose response, PAX8 inhibitor project, plate reader, dry powder samples (AID 743043). The format is functional, cell-based. The settings on record: IGROV-1.
Experiment [14] in a line: NIH:OVCAR-3 ovarian cancer cell cytotoxicity, dose response, PAX8 inhibitor project, plate reader, dry powder samples (AID 743044). The format is functional, cell-based.
Experiment [15] is described as follows: Glucagon-like peptide 1 release potency, NCI-H716 cell line, dose-response, half-maximal inhibitory concentration (AID 1117344). The class given is functional, cell-based.
Experiment [16] in a line: Concentration-dependent survival of SW480 colon cancer line, luminescence detection with CellTiter-Glo, half-maximal inhibitory concentration (AID 1117338). The class given is functional.
The nature of experiment [17]: CellTiter-Glo luminescent dose response of DLD-1 viability loss (AID 1117352). The class given is functional. (ATP-based viability assays read luminescence as a measure of living cells.)
Experiment [18] can be described thus: cytotoxicity toward HCT116 cells – cell-based, CellTiter-Glo luminescence, IC50, dose response (AID 1117332). The settings on record: HCT-116. The format is functional.
Experiment [19] is described as follows: cytotoxicity toward HT-29 cells – cell-based, CellTiter-Glo luminescence, IC50, dose response (AID 1117330). The class given is functional.
Experiment [20] can be described thus: RKO cell viability reduction, dose response, CellTiter-Glo luminescence (AID 1117322). The format is functional.
The nature of experiment [21]: cytotoxicity in COV434 cells, dose response, cytotoxicity control for PAX8 inhibitor project, cell-based, plate reader, dry powder, SA7 (AID 743145). The class given is functional.
Experiment [22] in a line: PAX5 activity inhibitors, dose response, selectivity assay for PAX8 inhibitor project, cell-based, plate reader, dry powder samples (AID 743047).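 Note: HEK293 cells carrying a Pax5 driven CD19 promoter luciferase reporter; potency of inhibitors that lower reporter luminescence.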 The class given is functional.
Experiment [23] concerns Vero. Nature of the experiment: cells. The class given is functional. The settings on record: Chlorocebus sabaeus.
Experiment [24] can be described thus: cytotoxicity toward NIH3T3 fibroblasts, dose response, counter-screen, cell-based, ATP luminescence, mouse fibroblasts (AID 2010).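 Note: cells exposed to compound for about 90 hours before reading.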 The class given is functional. The settings on record: nih3t3. (A counterscreen serves to expose hits that act by an unwanted route or on another target.)
Experiment [25] is described as follows: nonselective inhibitors of cellular cAMP signaling, dose response, counter-screen for MC4R biased antagonist project, cell-based, TR-FRET cAMP detection (AID 602305).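 Note: U2OS cells stimulated with forskolin near its EC80 as the cAMP inducer; potency is for inhibition of forskolin-stimulated cAMP signaling.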 The format is functional.
The nature of experiment [26]: HeLa 4N DNA content increase, dose response, cell-based, IC50 (AID 1117351). The class given is functional.
The nature of experiment [27]: HeLa 2N DNA content increase, dose response, cell-based, IC50 (AID 1117349). The format is functional.
Experiment [28] in a line: PAX2 cell-based inhibition, dose response, selectivity assay for PAX8 inhibitor project, plate reader, dry powder samples (AID 743048).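 Note: HEK293 cells carrying a WT1 promoter luciferase reporter driven by expressed Pax2; potency is for inhibition of Pax2 driven reporter signal.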 The class given is functional.
Experiment [29] is described as follows: half-maximal inhibitory concentration for glucagon-like peptide-1 release, STC-1 cell line, dose-response (AID 1117345). The class given is functional, cell-based.
Experiment [30] is described as follows: cytotoxicity in OV-90 ovarian cancer cells, dose response, PAX8 inhibitor project, cell-based, plate reader, dry powder, SA8 (AID 743149). The class given is functional.
Experiment [31] in a line: SNU-C1 cell viability reduction, dose response, CellTiter-Glo luminescence (AID 1117323). The class given is functional, cell-based.
Experiment [32] in a line: cytotoxicity in COV362 ovarian cancer cells, dose response, cytotoxicity control for PAX8 inhibitor project, cell-based, plate reader, dry powder, SA12 (AID 743144). The format is functional.
Experiment [33] in a line: cytotoxicity toward Colo320 cells – cell-based, CellTiter-Glo luminescence, IC50, dose response (AID 1117334). The class given is functional. The following applies: COLO 320.

Sequence of Leucyl-cystinyl aminopeptidase (Q8C129 whole entry): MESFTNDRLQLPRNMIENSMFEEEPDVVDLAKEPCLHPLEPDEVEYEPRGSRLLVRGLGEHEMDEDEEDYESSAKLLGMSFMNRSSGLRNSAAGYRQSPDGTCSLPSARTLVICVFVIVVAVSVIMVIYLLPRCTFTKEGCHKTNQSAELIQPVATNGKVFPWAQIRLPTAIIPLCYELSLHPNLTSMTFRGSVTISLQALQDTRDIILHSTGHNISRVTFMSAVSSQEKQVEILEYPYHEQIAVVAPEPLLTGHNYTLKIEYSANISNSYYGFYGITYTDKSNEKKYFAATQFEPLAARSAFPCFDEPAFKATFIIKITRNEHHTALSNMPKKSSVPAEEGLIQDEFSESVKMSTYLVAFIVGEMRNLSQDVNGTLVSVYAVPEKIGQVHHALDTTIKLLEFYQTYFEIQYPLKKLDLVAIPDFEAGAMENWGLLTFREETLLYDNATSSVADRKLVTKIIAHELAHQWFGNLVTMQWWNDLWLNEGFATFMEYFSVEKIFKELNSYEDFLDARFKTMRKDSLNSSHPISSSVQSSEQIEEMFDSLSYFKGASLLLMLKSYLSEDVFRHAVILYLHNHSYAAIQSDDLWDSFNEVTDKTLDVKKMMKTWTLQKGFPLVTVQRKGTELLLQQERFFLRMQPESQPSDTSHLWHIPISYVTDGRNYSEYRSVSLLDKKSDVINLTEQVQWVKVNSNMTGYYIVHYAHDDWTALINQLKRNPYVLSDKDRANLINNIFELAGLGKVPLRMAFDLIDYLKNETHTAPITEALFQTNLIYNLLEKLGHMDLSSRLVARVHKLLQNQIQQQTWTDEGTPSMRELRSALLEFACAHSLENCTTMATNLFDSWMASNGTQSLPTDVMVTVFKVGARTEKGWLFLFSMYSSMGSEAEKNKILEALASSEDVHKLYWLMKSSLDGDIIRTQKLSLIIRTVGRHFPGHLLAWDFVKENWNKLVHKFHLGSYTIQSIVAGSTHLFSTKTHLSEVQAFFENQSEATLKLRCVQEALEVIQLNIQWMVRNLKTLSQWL
Sequence of Endoplasmic reticulum aminopeptidase 2 (Q6P179 whole entry): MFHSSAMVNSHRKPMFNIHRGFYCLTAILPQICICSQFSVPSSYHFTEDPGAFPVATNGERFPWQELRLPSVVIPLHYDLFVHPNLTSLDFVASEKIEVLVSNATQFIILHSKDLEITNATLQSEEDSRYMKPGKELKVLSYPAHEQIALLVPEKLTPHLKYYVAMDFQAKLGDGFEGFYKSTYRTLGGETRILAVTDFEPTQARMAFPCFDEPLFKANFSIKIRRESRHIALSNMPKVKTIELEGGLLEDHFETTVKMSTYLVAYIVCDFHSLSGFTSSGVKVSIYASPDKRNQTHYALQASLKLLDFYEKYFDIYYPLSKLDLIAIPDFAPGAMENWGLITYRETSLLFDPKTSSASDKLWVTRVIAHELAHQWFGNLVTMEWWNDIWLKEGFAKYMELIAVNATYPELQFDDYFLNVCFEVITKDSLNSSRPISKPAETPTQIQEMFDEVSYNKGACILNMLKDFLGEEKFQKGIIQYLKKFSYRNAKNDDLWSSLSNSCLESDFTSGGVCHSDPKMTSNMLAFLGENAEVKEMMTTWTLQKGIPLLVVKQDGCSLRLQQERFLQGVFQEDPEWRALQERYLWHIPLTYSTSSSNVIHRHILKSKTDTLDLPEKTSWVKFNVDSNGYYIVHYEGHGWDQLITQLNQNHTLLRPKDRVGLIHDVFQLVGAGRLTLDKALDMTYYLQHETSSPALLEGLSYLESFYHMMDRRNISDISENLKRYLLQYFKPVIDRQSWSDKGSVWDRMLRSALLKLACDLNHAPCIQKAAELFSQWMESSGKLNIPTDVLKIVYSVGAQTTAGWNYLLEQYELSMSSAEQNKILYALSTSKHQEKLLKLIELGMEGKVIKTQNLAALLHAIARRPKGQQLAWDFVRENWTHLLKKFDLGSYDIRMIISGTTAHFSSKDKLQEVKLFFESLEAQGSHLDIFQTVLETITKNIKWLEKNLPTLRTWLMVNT

Consider `CCc1ccc2nc(NC(=O)Cn3cnc4ccccc4c3=O)sc2c1`, for which the IC50 was > 109 µM (inactive) in experiment [1], > 83.3 µM (inactive) in [2] and 11.7 µM (not active) in experiment [3].
For `Cc1ccc(C(C)C)c(OCCn2c(=S)[nH]c3cc(F)ccc32)c1`, the AC50 in experiment [4] is 26.9 µM (active).
On to `COc1ccc(C(=O)O)cc1S(=O)(=O)Nc1ccc(C(F)(F)F)cc1N1CCCCC1`, for which the AC50 in experiment [5] is 77 µM (active); in experiment [6] it was 12.5 µM (active).
Regarding `N=C(NCCCCCCNC(=N)NC(=N)Nc1ccc(Cl)cc1)NC(=N)Nc1ccc(Cl)cc1` [CHLORHEXIDINE], the AC50 was 4.67 µM (active) in [7]; 33.9 µM (active) in experiment [10]; 12.5 µM (active) in experiment [11]; 13.9 µM (active) in [12]; 15.6 µM (active) in experiment [13]; 13.8 µM (active) in experiment [14]. Besides, the concentration at half-maximal activity (AC50) in experiment [21] is 12.2 µM (active); in experiment [22] it was 16.4 µM (active); in experiment [28] it was 13.6 µM (active); in experiment [30] it was 20 µM (active); in experiment [32], 21.6 µM (active). Also, the IC50 in experiment [8] was 25.2 µM (inactive); in experiment [15], 26.2 µM (inactive); in experiment [16] it was 5.67 µM (inactive); in experiment [17], 2.8 µM (active); in experiment [18] it was 4.39 µM (active); in experiment [19], 3.79 µM (active). In addition, the IC50 in [20] was 4.58 µM (active); in [25], 31.8 µM (inactive); in [26] it was > 10 µM (inactive); in experiment [27] it was > 10 µM (inactive); in [29], 10.3 µM (inactive); in experiment [31], 0.439 µM (active). Moreover, the IC50 in experiment [33] is 5.16 µM (inactive). Besides, the EC50 in experiment [9] is 0.178 µM (active); in [24], 6.74 µM (active). Also, the CC50 in experiment [23] is 8.43 µM (active).
